Laboratory results reported in patent US12084479B2, “Modified antimicrobial peptide derived from an arginine-rich domain” (priority 2016, dated 2024).
Where two headings read alike, the source gives them in different places. Where a SMILES comes first, the peptide text is derived from it. Where no end group is shown, it is not given here. [ ]: non-standard residue; d: D form.

Key:
[1] = In vivo toxicity (survival, serum ALT); parameters: species or system ICR mice; conditions: for serum ALT level compared with polymyxin B: day 1
Method: FIG. 7 is a set of graphs showing lower in vivo toxicity of HBcARD peptide D-150-177C in comparison with polymyxin B. At day 0, male ICR mice (5 mice/group) were ip. injected with different doses of D-150-177C peptide (20-80 mg/kg) and polymyxin B (50 mg/kg), respectively. (A) The survival rates of all groups were monitored for 7 days. (B) Serum samples collected from mice treated with D-150-177C and polymyxin B were determined for alanine aminotransferase activity (ALT) at day 1. The dash line represents the mean of ALT value (45 U/L) of ICR mice (Charles River Laboratories).
Using the sepsis mouse model, we examined the survival rates of ICR mice intraperitoneally (i.p.) injected with the 28-mer D-150-177C peptide (20-80 mg/kg body weight) and polymyxin B (a colistin-related compound) (50 mg/kg body weight). […] See FIG. 7, A. When the doses were increased to 60 and 80 mg/kg, survival rates of mice were decreased to 80% and 40%, respectively. See, FIG. 7, A. Liver injury can be detected by the serum ALT level.

K. pneumoniae = format: cell-based, Klebsiella pneumoniae
Method: (§1) The antimicrobial activities of HBcARD peptides were tested using a number of bacterial strains, including Pseudomonas aeruginosa Migula strains (ATCC 27853, ampicillin-resistant and ATCC 9027, ampicillin-resistant), Klebsiella pneumoniae strain (ATCC 13884), Shigella dysenteriae Xen27 (Caliper Co.), Escherichia coli strain (ATCC 25922), Staphylococcus aureus subsp. strains (ATCC 25923, methicillin-resistantATCC 29213, methicillin-resistant and ATCC 19636, methicillin-resistant) and Acinetobacter baumannii strains (ATCC 17978, ATCC 17978 CR, ATCC19606, ATCC 19606 CR, TCGH 45530 and TCGH 46709). Clinical isolates TCGH 45530 and TCGH 46709 were obtained from Tzu-Chi Buddhist General Hospital (TCGH) in Taiwan, and were identified using the Vitek system (Biomerieux Vitek, Inc., Hazelwood, MO, USA). See Chang et al. (2012), J Microbiol Immunol Infect 45:37-42 doi:10.1016/j.jmii.2011.09.019.
(§2) L- and D-HBcARD peptides were purchased from Yao-Hong Biotechnology Inc. (Taipei, Taiwan). Antimicrobial activity was determined as described. See, Chen et al., 2013. Briefly, bacteria were grown in MH broth (Difco) to mid-logarithmic phase at 37° C., and were diluted to 10^6 CFU (colony formation unit)/ml in phosphate buffer (10 mM sodium phosphate and 50 mM sodium chloride, pH 7.2). Peptides were serially diluted in the same buffer. Fifty microliters (μl) of bacteria were mixed with fifty μl of peptides at varying concentrations, followed by incubation at 37° C. for 3 hours without shaking. At the end of incubation, bacteria were placed on Mueller-Hinton broth agar plates, and allowed to grow at 37° C. overnight for measurement of minimal bactericidal concentration (MBC).
(§3) All peptides were tested in triplicate.

A. baumannii = format: cell-based, Acinetobacter baumannii
Method: as §1, §2, §3

P. aeruginosa = format: cell-based, Pseudomonas aeruginosa
Method: as §1, §2, §3

S. aureus = format: cell-based, Staphylococcus aureus
Method: as §1, §2, §3

S. aureus ATCC 19636 = assay: Mouse sepsis model infected with S. aureus, in vivo protection efficacy; parameters: species or system ICR mice; conditions: for survival (mice protected from death): S. aureus 4×10^6 CFU/mouse i.p., monitored 7 days; for in vivo protection efficacy, compared between peptides: mouse sepsis model, FIG. 8 (5 mg/kg) and FIG. 9 (different doses)
Method: To investigate the in vivo protection efficacy of the 37-mer L- and D-HBcARD peptides, we performed a mouse sepsis model infected with S. aureus. ICR mice were first i.p. inoculated with S. aureus (4×10^6 CFU/mouse), followed by one single i.p. injection of L-HBcARD, D-HBcARD and PBS at two hours post-inoculation, respectively. All mice (n=10) administered with PBS died at day 1. See FIG. 4, A. At 7 days post-inoculation, 40% of mice treated with L-HBcARD (10 mg/kg) survived. See FIG. 4, A. In contrast, D-HBcARD peptide was able to achieve a much higher survival rate (60% for 5 mg/kg dose, and 100% for 10 mg/kg dose).
We compared the in vivo protection efficacy of HBcARD 150-177C peptides (28-mer) containing either D-form or L-form arginines. ICR mice (n=10/group) were ip. inoculated with S. aureus ATCC19636 (4×10^6/mouse), followed by treatment with modified peptides at two hours post-inoculation. All PBS control mice died on day 1, and only 20% of the mice treated with control peptide (150-177Q) survived. Administration of L-150-177C peptide at the dose of 5 and 10 mg/kg protected 30% and 70% mice from death, respectively. When treated with 5 mg/kg of D-150-177C, all mice (100%) survived.
Three-week old male ICR mice (19 to 21 g) were purchased from BioLASCO (Taiwan). To test the in vivo protection efficacy of the HBcARD peptides, all mice were inoculated intraperitoneally with S. aureus ATCC 19636 (4×10^6 CFU/mouse). HBc147-183 (L- or D-HBcARD) or the PBS control was administered intraperitoneally at 2 hours after bacterial inoculation, respectively. Each group contained 10 mice. Mortality was monitored daily for 7 days following the bacterial inoculation.

E. coli = format: cell-based, Escherichia coli; conditions: for Minimal bactericidal concentration: E. coli ATCC 25922
Method: as §1, §2, §3

[2] = 5 mg/kg single i.p. injection 2 hours post-inoculation

C[C@@H](O)[C@H](NC(=O)[C@@H](CCCNC(=N)N)NC(=O)[C@@H](CCCNC(=N)N)NC(=O)[C@@H](CCCNC(=N)N)NC(=O)[C@@H]1CCCN1C(=O)[C@H](CO)NC(=O)[C@@H](CCCNC(=N)N)NC(=O)CNC(=O)[C@@H](CCCNC(=N)N)NC(=O)[C@@H](CCCNC(=N)N)NC(=O)[C@H](N)CCCNC(=N)N)C(=O)N1CCC[C@H]1C(=O)N[C@@H](CO)C(=O)N1CCC[C@H]1C(=O)N[C@H](CCCNC(=N)N)C(=O)N[C@H](CCCNC(=N)N)C(=O)N[C@H](CCCNC(=N)N)C(=O)N[C@H](CCCNC(=N)N)C(=O)N[C@@H](CO)C(=O)N[C@@H](CCC(N)=O)C(=O)N[C@@H](CO)C(=O)N1CCC[C@H]1C(=O)N[C@H](CCCNC(=N)N)C(=O)N[C@H](CCCNC(=N)N)C(=O)N[C@H](CCCNC(=N)N)C(=O)N[C@H](CCCNC(=N)N)C(=O)N[C@@H](CO)C(=O)N[C@@H](CS)C(=O)O [D-150-177C, rrrGrSPrrrTPSPrrrrSQSPrrrrSC] (H-[dR][dR][dR]G[dR]SP[dR][dR][dR]TPSP[dR][dR][dR][dR]SQSP[dR][dR][dR][dR]SC-OH; N-terminus and C-terminus assumed)
survival rate ([1]; 60 mg/kg i.p., monitored 7 days): 80%
serum ALT level compared with polymyxin B ([1]; 60 mg/kg, p<0.01): significantly higher
survival rate ([1]; 80 mg/kg i.p., monitored 7 days): 40%
acute toxicity ([1]; 20 and 40 mg/kg i.p., monitored 7 days): no acute toxicity
serum ALT level compared with polymyxin B ([1]; 20 to 40 mg/kg, p value insignificant): higher ALT level than polymyxin B

RKPRGLEPRRRKVKTTVVYGRRRSKSRERRAPTPQR [Duck HBcARD]
Minimal bactericidal concentration (K. pneumoniae): >70.6 µg/mL
Minimal bactericidal concentration (A. baumannii): 70.6 µg/mL
Minimal bactericidal concentration (P. aeruginosa): >70.6 µg/mL

RKPRGLEPRRRKVKTTVVYGRRRSKSRGRRSSPSQR [Heron HBcARD]
Minimal bactericidal concentration (K. pneumoniae): >69.3 µg/mL
Minimal bactericidal concentration (A. baumannii): 69.3 µg/mL
Minimal bactericidal concentration (P. aeruginosa): >69.3 µg/mL

RRRGRSPRRRTPSPRRRRC [150-168C]
MBC (S. aureus; S. aureus ATCC19636): none of these peptides showed detectable activity

RRRGRSPRRRTPSPRRRRSQSPRRRRSC [150-177C]
survival (mice protected from death) (S. aureus ATCC 19636; [2]): 30%
survival (mice protected from death) (S. aureus ATCC 19636; 10 mg/kg single i.p. injection 2 hours post-inoculation): 70%
MBC (S. aureus): 2 µM
MBC (S. aureus; S. aureus ATCC19636, listed as HBcARD 150-177C): rescued the bactericidal activity
MBC (P. aeruginosa): 2 µM
MBC (E. coli): 2 µM

RRRGRSPRRRTPSPRRRRSQSPRRRRSQ [150-177Q]
survival (S. aureus ATCC 19636; control peptide, dose not given, treatment 2 hours post-inoculation): 20%
MBC (S. aureus; S. aureus ATCC19636, listed as HBcARD 150-177Q): no detectable bactericidal activity

RRRRSQSPRRRRSC [164-177C]
MBC (S. aureus; S. aureus ATCC19636): none of these peptides showed detectable activity

RRRTPSPRRRRSQSPRRRRC [157-176C]
MBC (S. aureus; S. aureus ATCC19636): none of these peptides showed detectable activity

RrRGRSPRrRTPSPRrRrSQSPRrRrSC (R[dR]RGRSPR[dR]RTPSPR[dR]R[dR]SQSPR[dR]R[dR]SC) [LD-150-177C]
survival (mice protected from death) (S. aureus ATCC 19636; [2]): 80%
in vivo protection efficacy, compared between peptides (S. aureus ATCC 19636): less than DL-150-177C

TIVRRRGGSRATRSPRRRTPSPRRRRSQSPRRRRSQSPASSNC [Bat HBcARD]
Minimal bactericidal concentration (K. pneumoniae; K. pneumoniae ATCC 13884): 5 µg/mL
Minimal bactericidal concentration (S. aureus; S. aureus ATCC19636): 20 µg/mL
Minimal bactericidal concentration (A. baumannii; A. baumannii ATCC 17978): 2.5 µg/mL
Minimal bactericidal concentration (P. aeruginosa; P. aeruginosa ATCC 9027): 10 µg/mL
Minimal bactericidal concentration (E. coli): 20 µg/mL

TVIRRRGGARASRSPRRRTPSPRRRRSQSPRRRRSQSPSANC [Woodchuck HBcARD]
Minimal bactericidal concentration (K. pneumoniae; K. pneumoniae ATCC 13884): 9.8 µg/mL
Minimal bactericidal concentration (S. aureus; S. aureus ATCC19636): 19.6 µg/mL
Minimal bactericidal concentration (A. baumannii; A. baumannii ATCC 17978): 4.9 µg/mL
Minimal bactericidal concentration (P. aeruginosa; P. aeruginosa ATCC 9027): 9.8 µg/mL
Minimal bactericidal concentration (E. coli): 19.6 µg/mL

polymyxin B [reference compound]
survival outcome after i.p. injection ([1]; 50 mg/kg body weight i.p.): died at day one

rRrGRPrRrPPrRrRQPrRrRC ([dR]R[dR]GRP[dR]R[dR]PP[dR]R[dR]RQP[dR]R[dR]RC) [DL-dST-150-177C]
in vivo protection efficacy, compared between peptides (S. aureus ATCC 19636): remarkably improved protection efficacy compared to the 28-mers DL-150-177C and L-150-177C

rRrGRSPrRrTPSPrRrRSQSPrRrRSC ([dR]R[dR]GRSP[dR]R[dR]TPSP[dR]R[dR]RSQSP[dR]R[dR]RSC) [DL-150-177C]
survival (mice protected from death) (S. aureus ATCC 19636; [2]): protected all S. aureus-infected mice from death
in vivo protection efficacy, compared between peptides (S. aureus ATCC 19636): very similar protection efficacy to all-D-arginine substituted peptide D-150-177C
